Laboratory results from BindingDB's records for doi:10.1111/j.1747-0285.2007.00617.x (Burnham Institute For Medical Research, 2008).

Tests used:
[1] = biological target: 72 kDa type IV collagenase (Homo sapiens, UniProt P08253); assay: MMP Inhibition Assay
Experimental: (§1) This assay was performed as outlined in the Anaspec MMP assay kit. The fluorescence peptide cleavage assay was performed in a 96-well plate in which each reaction mixture contained 5-FAM / QXL520 and activated MMP-2 or MMP-9 in assay buffer, and the screening compounds.

[2] = biological target: Matrix metalloproteinase-9 (Homo sapiens, UniProt P14780); assay: MMP Inhibition Assay
Experimental: as §1

Chain of 72 kDa type IV collagenase (P08253 whole entry): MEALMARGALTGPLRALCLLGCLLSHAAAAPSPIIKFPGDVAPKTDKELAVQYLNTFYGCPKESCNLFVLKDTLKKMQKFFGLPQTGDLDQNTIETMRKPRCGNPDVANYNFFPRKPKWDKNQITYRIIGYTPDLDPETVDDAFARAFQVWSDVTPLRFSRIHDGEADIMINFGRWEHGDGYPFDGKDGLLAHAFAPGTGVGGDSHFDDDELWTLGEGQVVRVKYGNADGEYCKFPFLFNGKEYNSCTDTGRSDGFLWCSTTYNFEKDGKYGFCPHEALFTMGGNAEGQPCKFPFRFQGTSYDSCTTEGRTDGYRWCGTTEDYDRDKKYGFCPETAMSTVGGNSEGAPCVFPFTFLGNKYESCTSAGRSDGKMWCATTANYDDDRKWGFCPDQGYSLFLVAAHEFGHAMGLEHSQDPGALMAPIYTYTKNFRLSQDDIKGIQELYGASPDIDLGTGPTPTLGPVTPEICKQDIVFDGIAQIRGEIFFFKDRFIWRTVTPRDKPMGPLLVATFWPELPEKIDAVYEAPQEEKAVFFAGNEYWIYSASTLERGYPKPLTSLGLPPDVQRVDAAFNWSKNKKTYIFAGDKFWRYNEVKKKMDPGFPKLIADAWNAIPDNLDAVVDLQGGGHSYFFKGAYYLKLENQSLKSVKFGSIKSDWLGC
Chain of Matrix metalloproteinase-9 (P14780 whole entry): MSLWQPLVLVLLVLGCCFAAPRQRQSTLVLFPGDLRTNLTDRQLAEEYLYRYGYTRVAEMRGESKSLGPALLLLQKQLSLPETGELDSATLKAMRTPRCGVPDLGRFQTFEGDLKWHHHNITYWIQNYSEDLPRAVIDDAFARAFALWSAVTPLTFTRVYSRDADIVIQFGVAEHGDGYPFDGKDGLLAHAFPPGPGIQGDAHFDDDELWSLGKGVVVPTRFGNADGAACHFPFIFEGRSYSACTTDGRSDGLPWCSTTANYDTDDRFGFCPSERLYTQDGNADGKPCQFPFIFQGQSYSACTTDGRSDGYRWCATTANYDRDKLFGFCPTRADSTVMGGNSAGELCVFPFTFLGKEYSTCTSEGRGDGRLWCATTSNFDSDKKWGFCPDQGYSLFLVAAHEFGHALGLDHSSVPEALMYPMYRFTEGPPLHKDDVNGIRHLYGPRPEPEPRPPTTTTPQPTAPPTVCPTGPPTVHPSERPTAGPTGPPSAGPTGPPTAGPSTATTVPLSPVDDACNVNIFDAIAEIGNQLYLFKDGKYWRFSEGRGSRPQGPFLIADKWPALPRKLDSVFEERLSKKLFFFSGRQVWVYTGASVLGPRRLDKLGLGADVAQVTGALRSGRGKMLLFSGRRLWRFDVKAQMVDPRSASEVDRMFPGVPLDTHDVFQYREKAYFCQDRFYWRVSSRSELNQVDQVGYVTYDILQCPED

SMILES | IC50 [1] | IC50 [2]
O=C(O)CN1C(=O)/C(=C/c2cc(-c3ccccc3)on2)SC1=S [2-[(5Z)-4-oxo-5-[(5-phenyl-1,2-oxazol-3-yl)methylidene]-2-sulfanylidene-1,3-thiazolidin-3-yl]acetic acid] | > 100 µM | 50 µM
Cc1nc(/C=C2\SC(=S)N(CC(=O)O)C2=O)c(C)o1 [2-[(5Z)-5-[(2,5-dimethyl-1,3-oxazol-4-yl)methylidene]-4-oxo-2-sulfanylidene-1,3-thiazolidin-3-yl]acetic acid] | > 100 µM | > 100 µM
Cc1nc(-c2ccccc2)c(/C=C2\SC(=S)N(CC(=O)O)C2=O)s1 [2-[(5Z)-5-[(2-methyl-4-phenyl-1,3-thiazol-5-yl)methylidene]-4-oxo-2-sulfanylidene-1,3-thiazolidin-3-yl]acetic acid] | > 100 µM | > 100 µM
CC(C)(C)OC(=O)N1CCC(c2nc(/C=C3\SC(=S)N(CC(=O)O)C3=O)cs2)CC1 [2-[(5Z)-5-[(2-{1-[(tert-butoxy)carbonyl]piperidin-4-yl}-1,3-thiazol-4-yl)methylidene]-4-oxo-2-sulfanylidene-1,3-thiazolidin-3-yl]acetic acid] | > 100 µM | > 100 µM
O=C(O)CN1C(=O)/C(=C/c2c[nH]c3ccc(Br)cc23)SC1=S [2-[(5Z)-5-[(5-bromo-1H-indol-3-yl)methylidene]-4-oxo-2-sulfanylidene-1,3-thiazolidin-3-yl]acetic acid] |  | > 100 µM
O=C(O)CN1C(=O)/C(=C/c2cc(-c3ccc(Br)cc3)on2)SC1=S [2-[(5Z)-5-{[5-(4-bromophenyl)-1,2-oxazol-3-yl]methylidene}-4-oxo-2-sulfanylidene-1,3-thiazolidin-3-yl]acetic acid] | > 100 µM | 27.4 µM
O=C(O)CN1C(=O)/C(=C/c2cc(-c3ccc(Cl)cc3)on2)SC1=S [2-[(5Z)-5-{[5-(4-chlorophenyl)-1,2-oxazol-3-yl]methylidene}-4-oxo-2-sulfanylidene-1,3-thiazolidin-3-yl]acetic acid] | 19.2 µM | > 100 µM
O=C(O)CN1C(=O)/C(=C/c2cc(-c3ccc(F)cc3)on2)SC1=S [2-[(5Z)-5-{[5-(4-fluorophenyl)-1,2-oxazol-3-yl]methylidene}-4-oxo-2-sulfanylidene-1,3-thiazolidin-3-yl]acetic acid] | 10 µM | > 100 µM
COc1ccc(-c2cc(/C=C3\SC(=S)N(CC(=O)O)C3=O)no2)cc1 [2-[(5Z)-5-{[5-(4-methoxyphenyl)-1,2-oxazol-3-yl]methylidene}-4-oxo-2-sulfanylidene-1,3-thiazolidin-3-yl]acetic acid] | 6.62 µM | > 100 µM
Cc1ccc(-c2cc(/C=C3\SC(=S)N(CC(=O)O)C3=O)no2)cc1 [2-[(5Z)-5-{[5-(4-methylphenyl)-1,2-oxazol-3-yl]methylidene}-4-oxo-2-sulfanylidene-1,3-thiazolidin-3-yl]acetic acid] | < 10 µM | > 100 µM
O=C(O)CN1C(=O)/C(=C/c2cc(-c3ccco3)on2)SC1=S [2-[(5Z)-5-{[5-(furan-2-yl)-1,2-oxazol-3-yl]methylidene}-4-oxo-2-sulfanylidene-1,3-thiazolidin-3-yl]acetic acid] |  | > 100 µM
